The target in the experiment is T1, Human HDAC10 (Homo sapiens, UniProt Q969S8).
T1 construct: Amino acids 1-631 with Nterminal GST tag, MW=96 kDa; GST (N); purchased BioMol SE-559; host or cells: Sf9 cells, baculovirus
T1 sequence (Q969S8 1-631): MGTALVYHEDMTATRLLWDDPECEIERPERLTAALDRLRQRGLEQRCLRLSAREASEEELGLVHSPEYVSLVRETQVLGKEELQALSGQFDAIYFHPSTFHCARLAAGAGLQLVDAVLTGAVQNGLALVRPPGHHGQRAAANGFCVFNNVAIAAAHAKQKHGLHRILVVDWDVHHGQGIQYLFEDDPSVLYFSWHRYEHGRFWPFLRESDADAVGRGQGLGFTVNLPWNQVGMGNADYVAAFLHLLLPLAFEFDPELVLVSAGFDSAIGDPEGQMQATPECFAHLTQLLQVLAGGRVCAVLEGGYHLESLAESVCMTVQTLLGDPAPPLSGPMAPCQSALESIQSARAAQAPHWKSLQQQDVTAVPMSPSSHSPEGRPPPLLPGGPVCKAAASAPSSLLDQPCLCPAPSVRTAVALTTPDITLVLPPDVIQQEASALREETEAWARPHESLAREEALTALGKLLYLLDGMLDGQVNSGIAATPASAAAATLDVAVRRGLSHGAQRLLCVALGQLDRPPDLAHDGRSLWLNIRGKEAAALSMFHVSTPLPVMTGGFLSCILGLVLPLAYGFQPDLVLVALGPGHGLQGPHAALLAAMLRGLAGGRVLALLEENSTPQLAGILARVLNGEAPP
Put plainly: In vitro HDAC10 inhibition, fluorogenic peptide assay. The class given is biochemical. The note with it: for IC50: read-out: IC50 (nM) of enzyme activity HDAC10. As to the method: All HDAC assays were performed using acetylated AMC-labeled peptide substrate: • Substrate for isoforms HDAC1, 2, 3, 4, 5, 6, 7, 9, 10, 11 and HeLa nuclear extract assays: Acetylated fluorogenic peptide from p53 residues 379-382 (RHKKAc) (BioMol. Cat. # KI-104). • Substrate for HDAC8 assays: Acetylated fluorogenic peptide from p53 residues 379-382 (RHKAcKAc) (BioMol. Cat. # KI-178).
Enzymes: • HDAC1 assay: 75 nM Human HDAC1 (GenBank Accession No. NM_004964): Full length with C-terminal GST tag, MW=79.9 kDa, expressed by baculovirus expression system in Sf9 cells (BioMol. Cat. # SE-456). • HDAC2 assay: 5 nM Human HDAC2 (GenBank Accession No. Q92769): Full length with C-terminal His tag, MW=60 kDa, expressed by baculovirus expression system in Sf9 cells (BioMol. Cat. # SE-500). • HDAC3 assay: 2.3 nM Human HDAC3/NcoR2 (GenBank Accession No. NM_003883 for HDAC3, GenBank Accession No.NM_006312 for NcoR2): Complex of human HDAC3, full length with C-terminal His tag, MW=49.7 kDa, and human NCOR2, N-terminal GST tag, MW=39 kDa, co-expressed in baculovirus expression system (BioMol. Cat. # SE-507). • HDAC4 assay: 266 nM Human HDAC4 (GenBank Accession No. NM_006037): Amino acids 627-1085 with N-terminal GST tag, MW=75.2 kDa, expressed in baculovirus expression system (BioMol, Hamburg, Germany). • HDAC5 assay: 588 nM Human HDAC5 (GenBank Accession No. NM_001015053): Full length with Nterminal GST tag, MW=150 kDa, expressed by baculovirus expression system in Sf9 cells (BioMol, Hamburg, Germany). • HDAC6 assay: 13 nM Human HDAC6 (GenBank Accession No. BC069243): Full length with N-terminal GST tag, MW=159 kDa, expressed by baculovirus expression system in Sf9 cells (BioMol. Cat. # SE-508). • HDAC7 assay: 962 nM Human HDAC7 (GenBank Accession No. AY302468): Amino acids 518-end with N-terminal GST tag, MW=78 kDa, expressed in baculovirus expression system (BioMol, Hamburg, Germany). • HDAC8 assay: 119 nM Human HDAC8 (GenBank Accession No. NM018486): Full length, MW=42 kDa, expressed in an E. coli expression system (BioMol. […]
The reactions were carried out in a 96-well microplate for fluorometry in a 50 μl reaction volume. […] The reaction was allowed to develop for 45 minutes at 30° C. with 5% CO2; then the fluorescent signal was measured with an excitation wavelength at 360 nm and an emission wavelength at 460 nm in a microplate-reading fluorometer (GeminiXS; Molecular Devices, Sunnyvale, Calif.). […] IC50 was calculated by fitting the experimental data to a dose-response curve. […]

With `O=C(CCCCCNC(=O)c1[nH]c(-c2ccc(O)cc2)cc1-c1ccoc1)NO` [Example 5, 3-(3-furyl)-N-(5-(hydroxycarbamoyl)pentyl)-5-(4-hydroxy-phenyl)-1H-pyrrole-2-carboxamide], the IC50 worked out at 14 nM. Still for that read-out and setting: in the case of `O=C(CCCCCNC(=O)c1[nH]c(-c2ccc(O)cc2)cc1-c1ccsc1)NO` [Example 6, N-(5-(hydroxycarbamoyl)pentyl)-5-(4-hydroxyphenyl)-3-(3-thienyl)-1H-pyrrole-2-carboxamide] it was 47 nM. On to `COc1ccc(-c2cc(-c3ccccc3)[nH]c2C(=O)NCCCCCC(=O)NO)cc1` [Compound A, N-[6-(hydroxyamino)-6-oxohexyl]-3-(4-methoxyphenyl)-5-phenyl-1H-pyrrole-2-carboxamide, reference compound], for which the IC50 is 346 nM. The “Selectivity against HDAC6 (IC50 HDACx/IC50 HDAC6) HDAC10” value (IC50 HDAC10/IC50 HDAC6) worked out at 17.3.

(Values after patent US20150038545A1, “HYDROXYPHENYL PYRROLE COMPOUNDS CONTAINING AN HYDROXAMIC ACID AS HDAC INHIBITORS AND MEDICINAL APPLICATIONS THEREOF” (UNIVERSIDAD DEL PAÍS VASCO, priority 2011, published 2015).)
